Data reported in patent US7105548B2, “Heteroaryl substituted triazole modulators of metabotropic glutamate receptor-5” (Merck & Co., Inc., priority 2001, dated 2006).
Counter-ions that a name gives are not always drawn.

Row | melting point | Structure (SMILES)
1 | 221 to 223 °C | Clc1cccc(-n2cnc(-c3ccccn3)n2)c1 (as salt: hydrochloride) [Example 1, 2-[1-(3-chlorophenyl)-1H-1,2,4-triazol-3-yl]pyridine]
2 | 185 to 188 °C | N#Cc1cccc(-c2ncn(-c3ccccn3)n2)c1 (as salt: hydrochloride) [Example 3, 3-(1-pyridin-2-yl-1H-1,2,4-triazol-3-yl)benzonitrile]
3 | 125 to 128 °C | Clc1cccc(-c2ncn(-c3ccccn3)n2)c1 (as salt: hydrochloride) [Example 4, 2-[3-(3-chlorophenyl)-1H-1,2,4-triazol-1-yl]pyridine]
4 | 194 to 195 °C | N#Cc1cccc(-n2cnc(-c3ccccn3)n2)c1 [Example 2, 3-(3-pyridin-2-yl-1H-1,2,4-triazol-1-yl)benzonitrile]
